Source: patent publication US10550091B2, “1,4,5-substituted 1,2,3-triazole analogues as antagonists of the pregnane X receptor” (ST. JUDE CHILDREN'S RESEARCH HOSPITAL, priority 2016, dated 2020)

Key:
HepG2 cells = experiment: HepG2 cytotoxicity assay (CellTiter Glo); assay type: cell-based; conditions: Homo sapiens; HepG2, 72 h; NA = not active; read-out: IC50 (cyto)
Source text: The luminescence signal was detected using an Envision plate reader (PerkinElmer Life Sciences).

hPXR = hPXR (Homo sapiens (Human), UniProt O75469)
Sequence of hPXR (O75469 whole entry): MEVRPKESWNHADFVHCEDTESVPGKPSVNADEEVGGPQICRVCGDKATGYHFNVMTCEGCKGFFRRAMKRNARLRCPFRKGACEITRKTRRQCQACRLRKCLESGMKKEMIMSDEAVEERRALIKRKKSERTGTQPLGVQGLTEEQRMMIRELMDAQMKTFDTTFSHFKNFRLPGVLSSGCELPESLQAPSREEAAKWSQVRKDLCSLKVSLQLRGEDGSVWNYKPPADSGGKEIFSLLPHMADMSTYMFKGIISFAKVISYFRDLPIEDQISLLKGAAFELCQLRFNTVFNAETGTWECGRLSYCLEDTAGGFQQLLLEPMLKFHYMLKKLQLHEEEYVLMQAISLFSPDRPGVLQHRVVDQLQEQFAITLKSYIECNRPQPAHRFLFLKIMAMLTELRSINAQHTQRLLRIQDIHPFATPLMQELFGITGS
Procedure: The hPXR transactivation assays (PXR agonistic and antagonistic assays) were performed in the HepG2 cells stably expressing FLAG-hPXR and CYP3A4-luciferase reporter. […] The luminescence signal was detected using an Envision plate reader (PerkinElmer Life Sciences).

| SMILES | IC50 (HepG2 cells) [nM] | EC50 (hPXR) [nM] |
| --- | --- | --- |
| COc1cc(C(C)=O)c(C)cc1-n1nnc(S(=O)(=O)c2ccc(C(C)(C)C)cc2)c1C [LC-26, 1-(4-(4-((4-(tert-butyl)phenyl)sulfonyl)-5-methyl-1H-1,2,3-triazol-1-yl)-5-methoxy-2-methylphenyl)ethan-1-one] | 3400 | 160 |
| CCc1cc(OC)c(-n2nnc(S(=O)(=O)c3ccc(C(C)(C)C)cc3)c2C)cc1Cl [LC-31, 4-((4-(tert-butyl)phenyl)sulfonyl)-1-(5-chloro-4-ethyl-2-methoxyphenyl)-5-methyl-1H-1,2,3-triazole] | 14800 | 760 |
| COc1cc(C(C)=O)c(Cl)cc1-n1nnc(S(=O)(=O)c2ccc(C(C)(C)C)cc2)c1C [LC-35, 1-(4-(4-((4-(tert-butyl)phenyl)sulfonyl)-5-methyl-1H-1,2,3-triazol-1-yl)-2-chloro-5-methoxyphenyl)ethan-1-one] | 7200 | 1300 |
| COc1ccc(Cl)cc1-n1nnc(S(=O)(=O)c2ccc(C(C)(C)C)cc2)c1N [LC-39, 4-((4-(tert-butyl)phenyl)sulfonyl)-1-(5-chloro-2-methoxyphenyl)-1H-1,2,3-triazol-5-amine] | 16100 | 1000 |
| COc1ccc(C)cc1-n1nnc(Nc2ccc(C(C)(C)C)cc2)c1C [LC-44, N-(4-(tert-butyl)phenyl)-1-(2-methoxy-5-methylphenyl)-5-methyl-1H-1,2,3-triazol-4-amine] | 22500 | 1200 |
| COc1ccc(Cl)cc1-n1nnc(Nc2ccc(C(C)(C)C)cc2)c1C [LC-45, N-(4-(tert-butyl)phenyl)-1-(5-chloro-2-methoxyphenyl)-5-methyl-1H-1,2,3-triazol-4-amine] | 30700 | 1100 |
| COc1ccc(Cl)cc1-n1nnc(N(C)c2ccc(C(C)(C)C)cc2)c1C [LC-48, N-(4-(tert-butyl)phenyl)-1-(5-chloro-2-methoxyphenyl)-N,5-dimethyl-1H-1,2,3-triazol-4-amine] | 33800 | 700 |
| COc1ccc(C)cc1-n1nnc(S(=O)(=O)c2ccc(C(C)(C)C)cc2)c1CCl [LC-65, 4-((4-(tert-butyl)phenyl)sulfonyl)-5-(chloromethyl)-1-(2-methoxy-5-methylphenyl)-1H-1,2,3-triazole] | 7000 | 6100 |
| COc1ccc(C)cc1-c1ncc(S(=O)(=O)c2ccc(C(C)(C)C)cc2)n1C [LC-71, 5-((4-(tert-butyl)phenyl)sulfonyl)-2-(2-methoxy-5-methylphenyl)-1-methyl-1H-imidazole] | 34900 | – |
| COc1ccc(Cl)cc1-c1ncc(S(=O)(=O)c2ccc(C(C)(C)C)cc2)n1C [LC-72, 5-((4-(tert-butyl)phenyl)sulfonyl)-2-(5-chloro-2-methoxyphenyl)-1-methyl-1H-imidazole] | 30900 | – |
| COc1ccc(Cl)cc1-c1nc(C)c(S(=O)(=O)c2ccc(C(C)(C)C)cc2)[nH]1 [LC-75, 5-((4-(tert-butyl)phenyl)sulfonyl)-2-(5-chloro-2-methoxyphenyl)-4-methyl-1H-imidazole] | – | 920 |
| COc1ccc(OC)c(-c2nc(C)c(S(=O)(=O)c3ccc(C(C)(C)C)cc3)n2C)c1 [LC-76, 5-((4-(tert-butyl)phenyl)sulfonyl)-2-(2,5-dimethoxyphenyl)-1,4-dimethyl-1H-imidazole] | – | 2800 |
| COc1ccc(C)cc1-c1nc(C)c(S(=O)(=O)c2ccc(C(C)(C)C)cc2)n1C [LC-77, 5-((4-(tert-butyl)phenyl)sulfonyl)-2-(2-methoxy-5-methylphenyl)-1,4-dimethyl-1H-imidazole] | – | 790 |
| COc1ccc(C)cc1-c1ncc(C(=O)c2ccc(C(C)(C)C)cc2)n1C [LC-80, (4-(tert-butyl)phenyl)(2-(2-methoxy-5-methylphenyl)-1-methyl-1 h-imidazol-5-yl)methanone] | – | 2400 |
| COc1ccc(Cl)cc1-c1ncc(C(=O)c2ccc(C(C)(C)C)cc2)n1C [LC-81, (4-(tert-butyl)phenyl)(2-(5-chloro-2-methoxyphenyl)-1-methyl-1H-imidazol-5-yl)methanone] | – | 1200 |
